Measured values: patent publication US12208080B2, “Compositions and methods for modulation of extracellular vesicle release and treatment of neurological disorders” (GEORGE MASON RESEARCH FOUNDATION, INC., priority 2018, dated 2025)

Experiments:
Assay type in all cases: cell-based
[1] = tested on: HIV-1 infected monocytes (U1); assay: ZetaView nanoparticle tracking analysis of EVs released from HIV-1 infected U1 monocytes; conditions: 5 days; for EV diameter (mean, median, peak): 1, 5, 10 μM or μg/mL, FIG. 8B-D; for release of EVs (EV concentration) / size of the EV (mean size): 1, 5, 20, 50 μM; for release of EVs (EV concentration): FIG. 2A; for size of the EV (mean size): FIG. 2B
Method: HIV-1 infected monocytes (U1) were treated with cannabidiol (“CBD”) (1, 5, 20, and 50 μM) or with tetrahydrocannabinol (“THC”) (1, 5, 20, and 50 μM) for 5 days. The supernatants from the treated cells were analyzed by Zeta View Nanoparticle Tracking analysis for changes in concentration. Student's t-test was used to determine significance (***=p<0.001, **=p<0.01, *=p<0.05).
HIV-1 infected monocytes (U1) were treated with cannabidiol (“CBD”) (1, 5, 20, and 50 μM) or with tetrahydrocannabinol (“THC”) (1, 5, 20, and 50 μM) for 5 days. The supernatants from the treated cells were analyzed by Zeta View Nanoparticle Tracking analysis for changes in mean size. Student's t-test was used to determine significance (***=p<0.001, **=p<0.01, *=p<0.05).
FIGS. 8A-8D are graphs showing Cannabis components lower EVs released from HIV-1 infected monocytes. HIV-1 infected U1 monocytic cells (1×10^6) were treated with a titration of CBD (1, 5, and 10 μM) and THC (1, 5, and 10 μg/mL) every day for 5 days. Cells were pelleted and supernatant was used for Zetaview NTA analysis to determine (A) EV concentration, (B) median size, (C) mean size, and (D) peak size. Each bar represents an average of three independent replicates. Student's t-test was used for statistical analysis, where *p-value≤0.05; **p-value≤0.01, ***p-value≤0.001.
HIV-1 infected monocytes (U1) were treated with a titration of CBD (1, 5, 20, and 50 μM) or a titration of THC (1, 5, 20, and 50 μM) for 5 days. Resulting supernatants from the treated cells were analyzed by Zeta View Nanoparticle Tracking analysis for changes in concentration (FIG. 2A) or mean size (FIG. 2B).
NTA was performed with the ZetaView Z-NTA (Particle Metrix) and its software (ZetaView 8.04.02). The machine was calibrated according to manufacturer's protocol. Following the measurement and removal of any outliers from the measured 11 positions, the mean size (diameter; nm) and the concentration of the sample (EV number) were analyzed by the associated ZetaView software. Measurement data from the ZetaView were used to calculate averages and standard deviations from technical triplicates using Microsoft Excel 2016.
(§1) Supernatants were harvested and analyzed using ZetaView NTA.
To verify that the observed decrease in EVs was not the result of modifications in packaging of various cargos into larger EVs, the mean diameter size (FIG. 8B), median diameter size (FIG. 8C), and peak diameter size (FIG. 8D) were also analyzed.

[2] = tested on: HIV-1 infected monocytes (U1); assay: Western blot/densitometry of EV-associated proteins (NT80/82-enriched supernatant) from U1 cells; conditions: for CD81 (EV marker) in EVs / EV-associated Nef / EV-associated gp120: 1, 5, 20, 50 μM, FIG. 2C; for EV CD81 level / EV-associated Nef (30 kDa) / EV-associated myristoylated Nef dimer (70 kDa): CBD 1, 5, 10 μM, THC 1, 5, 10 μg/mL, FIG. 9A; for increase in EV-associated gp160 (densitometry): maximum, CBD lane 4 (10 μM), THC lane 7 (10 μg/mL)
[3] = tested on: HIV-1 infected monocytes (U1); assay: RT-qPCR of EV-associated HIV-1 TAR and env RNA from U1 cells; conditions: 5 days; for incorporation of TAR RNA into EVs / incorporation of env RNA into EVs: 1, 5, 20, 50 μM; for incorporation of TAR RNA into EVs: FIG. 3A; for incorporation of env RNA into EVs: FIG. 3B; for env RNA within EVs: FIG. 9C; for reduction in TAR RNA within EVs: average from two replicates
[4] = tested on: HIV-1 infected U1 monocytic cells; assay: MTT cell viability assay; conditions: CBD 1, 5, 10 μM, THC 1, 5, 10 μg/ml, 5 days, FIG. 7
Method: FIG. 7 is a graph showing cell viability analysis of cannabidiol components on HIV-1 infected monocytes. HIV-1 infected U1 monocytic cells (1×10^6) were treated with CBD (green bars) at 1, 5, 10 and 50 μM) or THC (blue bars) at 1, 5, 10 and 50 μg/mL) every day for 5 days. Cell viability was determined using the MTT assay. Student's t-test was used for statistical analysis, where n.s is not significant, *p-value≤0.05; **p-value≤0.01, ***p-value≤0.001.
Cells were cultured in RPMI with 10% exosome-free FBS at 10^6 cells per well in 6 well plates. Cells were treated with 0.005% ethanol (control), CBD (1, 5 10, 50 μm) and THC (1, 5, 10, 50 μg/mL) once per day for 5 days. The MTT assay was used to measure cell death according to manufacturer's protocol (Sigma). After incubating with MTT solution for 2 h, the culture medium was aspirated and 1 mL of MTT solvent was added to each well. Cell viability was determined by the formation of formazan crystal and measured by absorbance at 590 nm and 620 nm, as previously described (Cotto et al., 2018, Cocaine and HIV-1 Tat Disrupt Cholesterol Homeostasis in Astrocytes: Implications for HIV-Associated Neurocognitive Disorders in Cocaine User Patients. Glia, 66(4), 889-902).
as §1

[5] = CBD 1, 5, 10 μM, THC 1, 5, 10 μg/mL

SMILES	EV diameter (mean, median, peak) [1]	release of EVs (EV concentration) [1]	size of the EV (mean size) [1]	CD81 (EV marker) in EVs ([2]; U1, 5 days)	EV-associated Nef ([2]; U1, 5 days)	EV-associated gp120 ([2]; U1, 5 days)	EV CD81 level ([2]; U1, 5 days)	EV-associated Nef (30 kDa) ([2]; U1, 5 days)	EV-associated myristoylated Nef dimer (70 kDa) ([2]; U1, 5 days)	increase in EV-associated gp160 (densitometry) [2]	incorporation of TAR RNA into EVs [3]	incorporation of env RNA into EVs [3]	env RNA within EVs [3, 5]	cell viability [4]	other results
CCCCCc1cc(O)c2c(c1)OC(C)(C)[C@@H]1CCC(C)=C[C@@H]21 [THC, Δ9-tetrahydrocannabinol]	little to no change in diameter	significantly reduced the release of EVs	without altering the size of the EV	reduction in CD81	dose-dependent decrease	dose-dependent decrease	decrease in CD81	dose-dependent decrease	dose-dependent decrease	≤ 57%	statistically significant, dose-dependent decrease	statistically significant, dose-dependent decrease	reduction	no effects on cell viability	number of EVs released ([1]; 1, 5, 10 μg/mL, FIG. 8A lanes 5-7, less drastic than CBD): significant reduction in the number of EVs; decrease in EV-associated myristoylated Nef dimer (70 kDa), densitometry ([2]; greatest reduction, lane 7 (THC 10 μg/mL), FIG. 10): up to 37%
C=C(C)[C@@H]1CCC(C)=C[C@H]1c1c(O)cc(CCCCC)cc1O [CBD, 2-[1R-3-methyl-6R-(1-methylethenyl)-2-cyclohexen-1-yl]-5-pentyl-1,3-benzenediol]	little to no change in diameter	significantly reduced the release of EVs	without altering the size of the EV	reduction in CD81	dose-dependent decrease	dose-dependent decrease	decreased	dose-dependent decrease	dose-dependent decrease	up to 125%	statistically significant, dose-dependent decrease	statistically significant, dose-dependent decrease	reduction	no effects on cell viability	decrease in EVs compared to untreated control ([1]; 1 μM, FIG. 8A lane 2): 44%; decrease in EVs compared to untreated control ([1]; 5 μM, FIG. 8A lane 3): 76%; decrease in EVs compared to untreated control ([1]; 10 μM, FIG. 8A lane 4): 79%; reduction in EV-associated gp120 (densitometry) ([2]; U1, CBD 1, 5, 10 μM (lanes 2-4), 5 days): 39-58%; reduction in EV CD81 expression (densitometry) ([2]; U1, low titer CBD (lane 2, 1 μM), 5 days, FIG. 10A): 80%; decrease in EV-associated Nef (30 kDa), densitometry ([2]; greatest reduction, lane 3 (CBD 5 μM), FIG. 10): up to 79%; reduction in TAR RNA within EVs ([3]; 5 μM, FIG. 9B): 55%; reduction in TAR RNA within EVs ([3]; 10 μM, FIG. 9B): 86%; dose-dependent decrease in EV-associated TAR RNA ([3]; CBD 1, 5, 10 μM, THC 1, 5, 10 μg/mL, FIG. 9B): dose-dependent decrease
